{
  "source": "patent US5876694A",
  "about": "“Azavesamicols” (priority 1997, dated 1999)",
  "test": "Tissue distribution of radiotracer in rats",
  "type": "in vivo, male Wistar rats",
  "conditions": "for tissue uptake at 5 min / tissue uptake at 0.5 h / tissue uptake at 1 h / tissue uptake at 3 h: rat",
  "experimental": "Tissue Distribution Experiments\nFour groups of male Wistar rats (n=4) weighing 200-350 g were used in these experiments. Each animal received, while under ether anesthesia, an intravenous injection of the radiotracer (3-5 uCi) dissolved in 0.1 mL of 50% aqueous ethanol. At 5, 30, 60 and 180 min post-injection, blood was collected from the anesthetized animal by cardiac puncture, and the animal was immediately sacrificed by cardiectomy. The organs and tissues of interest were harvested, transferred to preweighed tubes and counted in a Beckman gamma counter. The tubes were subsequently reweighed to give the weight of the corresponding tissues. Preweighed tubes containing 1 mL samples of a 1:100 dilution of the injected dose were also counted and used as reference for calculating the tissue accumulation of radioactivity. The accumulation of radiotracer was expressed as a percentage of injected dose per gram of tissue.\nThe animals were injected intravenously with 4.9 uCi of the radiotracer i\n0.1 ml of 50% aq. EtOH.\nThe animals were injected with 3.7 uCi of the radiotracer in 0.1 ml of 50",
  "note": "Like-named read-outs stand apart in the source and are kept apart here.",
  "data": [
    {"smiles": "O[C@@H]1CCN(Cc2cccc([125I])c2)C[C@H]1N1CCC(c2ccccc2)CC1", "note": "(single isomer, unassigned) [(-)-[^125 I]12h, (+)- and (-)-4-hydroxy-1-(3-[I^125]iodobenzyl)-3-(4-phenyl-piperidinyl)piperidine]", "values": [
      {"measurement": "Ratio brain/blood", "setting": "5 min, iv", "result": 4.27},
      {"measurement": "Ratio heart/blood", "setting": "5 min, iv", "result": 6.07},
      {"measurement": "radioactivity in brain", "setting": "5 min post-injection, iv", "result": "1.67 % of the injected dose"},
      {"measurement": "Ratio brain/blood", "setting": "30 min, iv", "result": 9.06},
      {"measurement": "Ratio heart/blood", "setting": "30 min, iv", "result": 6.87},
      {"measurement": "Ratio brain/blood", "setting": "60 min, iv", "result": 8.51},
      {"measurement": "Ratio heart/blood", "setting": "60 min, iv", "result": 5.97},
      {"measurement": "Ratio brain/blood", "setting": "180 min, iv", "result": 9.87},
      {"measurement": "Ratio heart/blood", "setting": "180 min, iv", "result": 5.32},
      {"measurement": "brain accumulation and retention (in words)", "setting": "compared with the (+)-isomer", "result": "higher accumulation and longer retention in the brain"},
      {"measurement": "tissue uptake at 5 min", "setting": "blood, 5 min, iv, read-out: Tissue distribution, blood", "result": 0.22, "unit": "%ID/g"},
      {"measurement": "tissue uptake at 0.5 h", "setting": "blood, 30 min, iv, read-out: Tissue distribution, blood", "result": 0.11, "unit": "%ID/g"},
      {"measurement": "tissue uptake at 1 h", "setting": "blood, 60 min, iv, read-out: Tissue distribution, blood", "result": 0.1, "unit": "%ID/g"},
      {"measurement": "tissue uptake at 3 h", "setting": "blood, 180 min, iv, read-out: Tissue distribution, blood", "result": 0.1, "unit": "%ID/g"},
      {"measurement": "tissue uptake at 5 min", "setting": "brain, 5 min, iv, read-out: Tissue distribution, brain", "result": 0.92, "unit": "%ID/g"},
      {"measurement": "tissue uptake at 0.5 h", "setting": "brain, 30 min, iv, read-out: Tissue distribution, brain", "result": 0.99, "unit": "%ID/g"},
      {"measurement": "tissue uptake at 1 h", "setting": "brain, 60 min, iv, read-out: Tissue distribution, brain", "result": 0.83, "unit": "%ID/g"},
      {"measurement": "tissue uptake at 3 h", "setting": "brain, 180 min, iv, read-out: Tissue distribution, brain", "result": 0.92, "unit": "%ID/g"},
      {"measurement": "tissue uptake at 5 min", "setting": "gonads, 5 min, iv, read-out: Tissue distribution, gonads", "result": 0.19, "unit": "%ID/g"},
      {"measurement": "tissue uptake at 0.5 h", "setting": "gonads, 30 min, iv, read-out: Tissue distribution, gonads", "result": 0.23, "unit": "%ID/g"},
      {"measurement": "tissue uptake at 1 h", "setting": "gonads, 60 min, iv, read-out: Tissue distribution, gonads", "result": 0.17, "unit": "%ID/g"},
      {"measurement": "tissue uptake at 3 h", "setting": "gonads, 180 min, iv, read-out: Tissue distribution, gonads", "result": 0.2, "unit": "%ID/g"},
      {"measurement": "tissue uptake at 5 min", "setting": "heart, 5 min, iv, read-out: Tissue distribution, heart", "result": 1.32, "unit": "%ID/g"},
      {"measurement": "tissue uptake at 0.5 h", "setting": "heart, 30 min, iv, read-out: Tissue distribution, heart", "result": 0.75, "unit": "%ID/g"},
      {"measurement": "tissue uptake at 1 h", "setting": "heart, 60 min, iv, read-out: Tissue distribution, heart", "result": 0.58, "unit": "%ID/g"},
      {"measurement": "tissue uptake at 3 h", "setting": "heart, 180 min, iv, read-out: Tissue distribution, heart", "result": 0.5, "unit": "%ID/g"},
      {"measurement": "tissue uptake at 5 min", "setting": "kidney, 5 min, iv, read-out: Tissue distribution, kidney", "result": 3.71, "unit": "%ID/g"},
      {"measurement": "tissue uptake at 0.5 h", "setting": "kidney, 30 min, iv, read-out: Tissue distribution, kidney", "result": 3.53, "unit": "%ID/g"},
      {"measurement": "tissue uptake at 1 h", "setting": "kidney, 60 min, iv, read-out: Tissue distribution, kidney", "result": 3.13, "unit": "%ID/g"},
      {"measurement": "tissue uptake at 3 h", "setting": "kidney, 180 min, iv, read-out: Tissue distribution, kidney", "result": 3.27, "unit": "%ID/g"},
      {"measurement": "tissue uptake at 5 min", "setting": "liver, 5 min, iv, read-out: Tissue distribution, liver", "result": 2.07, "unit": "%ID/g"},
      {"measurement": "tissue uptake at 0.5 h", "setting": "liver, 30 min, iv, read-out: Tissue distribution, liver", "result": 2.35, "unit": "%ID/g"},
      {"measurement": "tissue uptake at 1 h", "setting": "liver, 60 min, iv, read-out: Tissue distribution, liver", "result": 2.63, "unit": "%ID/g"},
      {"measurement": "tissue uptake at 3 h", "setting": "liver, 180 min, iv, read-out: Tissue distribution, liver", "result": 2.23, "unit": "%ID/g"},
      {"measurement": "tissue uptake at 5 min", "setting": "lung, 5 min, iv, read-out: Tissue distribution, lung", "result": 5.9, "unit": "%ID/g"},
      {"measurement": "tissue uptake at 0.5 h", "setting": "lung, 30 min, iv, read-out: Tissue distribution, lung", "result": 3.21, "unit": "%ID/g"},
      {"measurement": "tissue uptake at 1 h", "setting": "lung, 60 min, iv, read-out: Tissue distribution, lung", "result": 2.41, "unit": "%ID/g"},
      {"measurement": "tissue uptake at 3 h", "setting": "lung, 180 min, iv, read-out: Tissue distribution, lung", "result": 2.01, "unit": "%ID/g"},
      {"measurement": "tissue uptake at 5 min", "setting": "muscle, 5 min, iv, read-out: Tissue distribution, muscle", "result": 0.46, "unit": "%ID/g"},
      {"measurement": "tissue uptake at 0.5 h", "setting": "muscle, 30 min, iv, read-out: Tissue distribution, muscle", "result": 0.3, "unit": "%ID/g"},
      {"measurement": "tissue uptake at 1 h", "setting": "muscle, 60 min, iv, read-out: Tissue distribution, muscle", "result": 0.28, "unit": "%ID/g"},
      {"measurement": "tissue uptake at 3 h", "setting": "muscle, 180 min, iv, read-out: Tissue distribution, muscle", "result": 0.27, "unit": "%ID/g"},
      {"measurement": "tissue uptake at 5 min", "setting": "spleen, 5 min, iv, read-out: Tissue distribution, spleen", "result": 1.04, "unit": "%ID/g"},
      {"measurement": "tissue uptake at 0.5 h", "setting": "spleen, 30 min, iv, read-out: Tissue distribution, spleen", "result": 1.24, "unit": "%ID/g"},
      {"measurement": "tissue uptake at 1 h", "setting": "spleen, 60 min, iv, read-out: Tissue distribution, spleen", "result": 1.17, "unit": "%ID/g"},
      {"measurement": "tissue uptake at 3 h", "setting": "spleen, 180 min, iv, read-out: Tissue distribution, spleen", "result": 1.28, "unit": "%ID/g"},
      {"measurement": "tissue uptake at 5 min", "setting": "thyroid, 5 min, iv, read-out: Tissue distribution, thyroid", "result": 2.67, "unit": "%ID/g"},
      {"measurement": "tissue uptake at 0.5 h", "setting": "thyroid, 30 min, iv, read-out: Tissue distribution, thyroid", "result": 3.15, "unit": "%ID/g"},
      {"measurement": "tissue uptake at 1 h", "setting": "thyroid, 60 min, iv, read-out: Tissue distribution, thyroid", "result": 5.87, "unit": "%ID/g"},
      {"measurement": "tissue uptake at 3 h", "setting": "thyroid, 180 min, iv, read-out: Tissue distribution, thyroid", "result": 11.6, "unit": "%ID/g"},
      {"measurement": "brain level over time (in words)", "setting": "throughout the study (5 to 180 min)", "result": "remained essentially unchanged"}
    ]}
  ]
}
